Experimental data: patent US7638508B2, “Glucocorticosteroid compound having anti-inflammatory activity” (Glaxo Group Limited, priority 2003, dated 2009)

target: T1, glucocorticoid receptor (Homo sapiens, UniProt P04150); assay: MMTV-LTR renilla luciferase reporter assay in A549 cells (direct transactivation of gene expression); assay type: cell-based; conditions: 6 hour at 37° C., read-out: maximal response relative to Dexamethasone (100%)
T1 sequence (P04150 1-777): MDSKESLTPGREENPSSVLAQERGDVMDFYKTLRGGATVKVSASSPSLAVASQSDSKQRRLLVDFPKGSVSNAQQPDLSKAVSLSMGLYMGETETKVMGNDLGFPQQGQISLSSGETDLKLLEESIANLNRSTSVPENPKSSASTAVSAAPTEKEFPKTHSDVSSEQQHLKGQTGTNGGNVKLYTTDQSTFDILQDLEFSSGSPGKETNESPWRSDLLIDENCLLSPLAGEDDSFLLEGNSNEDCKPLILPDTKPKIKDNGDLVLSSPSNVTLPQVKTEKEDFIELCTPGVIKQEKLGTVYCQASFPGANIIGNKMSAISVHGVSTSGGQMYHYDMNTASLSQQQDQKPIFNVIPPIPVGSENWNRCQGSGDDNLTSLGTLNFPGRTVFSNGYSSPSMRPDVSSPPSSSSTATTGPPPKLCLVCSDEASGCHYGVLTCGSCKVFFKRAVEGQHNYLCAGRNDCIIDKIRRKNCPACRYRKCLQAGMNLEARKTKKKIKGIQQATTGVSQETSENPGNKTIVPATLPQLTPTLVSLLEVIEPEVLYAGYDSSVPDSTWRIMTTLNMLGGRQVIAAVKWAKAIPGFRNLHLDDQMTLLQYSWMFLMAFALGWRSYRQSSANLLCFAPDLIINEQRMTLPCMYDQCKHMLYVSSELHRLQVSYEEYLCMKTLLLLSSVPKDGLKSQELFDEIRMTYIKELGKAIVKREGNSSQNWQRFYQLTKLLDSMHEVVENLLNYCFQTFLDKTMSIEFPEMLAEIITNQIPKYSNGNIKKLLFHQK
Procedure: Pharmacological activity may be assessed in functional in vitro assays of glucocorticoid agonist activity.
The functional assay based on that described by R. J. H. Austin et al., Eur Resp J. (2002), 20, 1386-1392 measures the ability of compounds to directly transactivate gene expression. A549 cells stably transfected with a reporter gene containing the glucocorticoid responsive region of the mouse mammary tumour virus long terminal repeat (MMTV-LTR) coupled to renilla luciferase were treated with test compounds at appropriate doses for 6 hour at 37° C. The amount of luciferase activity present within the cells is then determined by measuring the light emitted following incubation with a suitable substrate.

Row | Structure (SMILES) | Emax [%]
1 | CC1CC2C3CC(F)C4=CC(=O)C=CC4(C)C3(F)C(O)CC2(C)C1(OC(=O)C1C(C)(C)C1(C)C)C(=O)SCC#N (stereo not drawn) [Example 1, 6α,9α-Difluoro-11β-hydroxy-16α-methyl-3-oxo-17α-(2,2,3,3-tetramethycyclopropylcarbonyl)oxy-androsta-1,4-diene-17β-carbothioic Acid S-cyanomethyl Ester] | < 35
2 | COc1c(C(=O)OC2(C(=O)SCC#N)C(C)CC3C4CC(F)C5=CC(=O)C=CC5(C)C4(F)C(O)CC32C)csc1Cl (stereo not drawn) [Example 3, 17α-(5-Chloro-4-methoxy-thiophene-3-carbonyl)oxy-6α,9α-difluoro-11β-hydroxy-16α-methyl-3-oxo-androsta-1,4-diene-17β-carbothioic Acid S-cyanomethyl Ester] | < 35
3 | C[C@@H]1C[C@H]2[C@@H]3C[C@H](F)C4=CC(=O)C=C[C@]4(C)[C@@]3(F)[C@@H](O)C[C@]2(C)[C@@]1(OC(=O)C1CCCCC1)C(=O)OCC#N [Example 5, 17α-(Cyclohexylcarbonyl)oxy-6α,9α-difluoro-11β-hydroxy-16α-methyl-3-oxo-androsta-1,4-diene-17β-carboxylic Acid cyanomethyl Ester] | < 35
4 | CC1CC2C3CC(F)C4=CC(=O)C=CC4(C)C3(F)C(O)CC2(C)C1(OC(=O)c1c(F)cccc1F)C(=O)OCC#N (stereo not drawn) [Example 6, 6α,9α-Difluoro-17α-(2,6-difluorobenzoyl)oxy-11β-hydroxy-16α-methyl-3-oxo-androsta-1,4-diene-17β-carboxylic Acid cyanomethyl Ester] | < 35
5 | COc1ccc(C(=O)OC2(C(=O)OCC#N)C(C)CC3C4CC(F)C5=CC(=O)C=CC5(C)C4(F)C(O)CC32C)cc1 (stereo not drawn) [Example 7, 6α,9α-Difluoro-11β-hydroxy-17α-(4-methoxybenzoyl)oxy-16α-methyl-3-oxo-androsta-1,4-diene-17β-carboxylic Acid cyanomethyl Ester] | < 35
6 | CC1CC2C3CC(F)C4=CC(=O)C=CC4(C)C3(F)C(O)CC2(C)C1(OC(=O)CC1CCCC1)C(=O)OCC#N (stereo not drawn) [Example 9, 17α-(Cyclopentylmethylcarbonyl)oxy-6α,9α-difluoro-11β-hydroxy-16α-methyl-3-oxo-androsta-1,4-diene-17β-carboxylic Acid Cyanomethyl Ester] | < 35
7 | CC1CC2C3CC(F)C4=CC(=O)C=CC4(C)C3(F)C(O)CC2(C)C1(OC(=O)CC(C)(C)C)C(=O)OCC#N (stereo not drawn) [Example 10, 6α,9α-Difluoro-17α-(3,3-dimethylbutanoyl)oxy-11β-hydroxy-16α-methyl-3-oxo-androsta-1,4-diene-17β-carboxylic Acid Cyanomethyl Ester] | < 35
8 | CC(C)c1nc(C(=O)O[C@]2(C(=O)OCC#N)[C@H](C)C[C@H]3[C@@H]4C[C@H](F)C5=CC(=O)C=C[C@]5(C)[C@@]4(F)[C@@H](O)C[C@@]32C)cs1 [Example 11, 6α,9α-Difluoro-11β-hydroxy-17α-(2-isopropyl-1,3-thiazole-4-carbonyl)oxy-16α-methyl-3-oxo-androsta-1,4-diene-17β-carboxylic Acid Cyanomethyl Ester] | < 35
9 | CC1CC2C3CC(F)C4=CC(=O)C=CC4(C)C3(F)C(O)CC2(C)C1(OC(=O)c1ccc2ccccc2n1)C(=O)OCC#N (stereo not drawn) [Example 12, 6α,9α-Difluoro-11β-hydroxy-16α-methyl-3-oxo-17α-(quinoline-2-carbonyl)oxy-androsta-1,4-diene-17β-carboxylic Acid Cyanomethyl Ester] | < 35
10 | CC1CC2C3CC(F)C4=CC(=O)C=CC4(C)C3(F)C(O)CC2(C)C1(OC(=O)c1ccc(C(F)(F)F)o1)C(=O)OCC#N (stereo not drawn) [Example 13, 6α,9α-Difluoro-11β-hydroxy-16α-methyl-3-oxo-17α-(5-trifluoromethyl-furan-2-carbonyl)oxy-androsta-1,4-diene-17β-carboxylic Acid Cyanomethyl Ester] | < 35
11 | CC1CC2C3CC(F)C4=CC(=O)C=CC4(C)C3(F)C(O)CC2(C)C1(OC(=O)c1ccc(S(C)(=O)=O)s1)C(=O)OCC#N (stereo not drawn) [Example 14, 6α,9α-Difluoro-11β-hydroxy-16α-methyl-17α-(5-methylsulphonyl-thiophene-2-carbonyl)oxy-3-oxo-androsta-1,4-diene-17β-carboxylic Acid Cyanomethyl Ester] | < 35
12 | CCc1cc(C(=O)OC2(C(=O)OCC#N)C(C)CC3C4CC(F)C5=CC(=O)C=CC5(C)C4(F)C(O)CC32C)no1 (stereo not drawn) [Example 16, 6α,9α-Difluoro-17α-(5-ethyl-isoxazole-3-carbonyl)oxy-11β-hydroxy-16α-methyl-3-oxo-androsta-1,4-diene-17β-carboxylic Acid Cyanomethyl Ester] | < 35
13 | CC1CC2C3CCC4=CC(=O)C=CC4(C)C3(F)C(O)CC2(C)C1(OC(=O)C1C(C)(C)C1(C)C)C(=O)OCC#N (stereo not drawn) [Example 17, 9α-Fluoro-11β-hydroxy-16β-methyl-3-oxo-17α-(2,2,3,3-tetramethylcyclopropylcarbonyl)oxy-androsta-1,4-diene-17 b-carboxylic Acid cyanomethyl ester] | < 35
14 | COc1c(C(=O)OC2(C(=O)OCC#N)C(C)CC3C4CC(F)C5=CC(=O)C=CC5(C)C4(F)C(O)CC32C)csc1Cl (stereo not drawn) [Example 19, 17α-(5-Chloro-4-methoxy-thiophene-3-carbonyl)oxy-6α,9α-difluoro-11β-hydroxy-16α-methyl-3-oxo-androsta-1,4-diene-17β-carboxylic Acid Cyanomethyl Ester] | < 35
15 | CC1CC2C3CC(F)C4=CC(=O)C=CC4(C)C3(F)C(O)CC2(C)C1(OC(=O)C1C(C)(C)C1(Cl)Cl)C(=O)SCC#N (stereo not drawn) [Example 21, 17α-(22-Dichloro-3,3-dimethylclopropylcarbonyl)oxy-6α,9α-difluoro-11β-hydroxy-16α-methyl-3-oxo-androsta-1,4-diene-17β-carbothioic acid S-cyanomethyl Ester] | < 35
16 | CC1CC2C3CC(F)C4=CC(=O)C=CC4(C)C3(F)C(O)CC2(C)C1(OC(=O)C1CCCCC1)C(=O)SCC#N (stereo not drawn) [Example 22, 17α-(Cyclohexylcarbonyl)oxy-6α,9α-difluoro-1,1-hydroxy-16α-methyl-3-oxo-androsta-1,4-diene-17β-carbothioic Acid S-cyanomethyl Ester] | < 35

target: T2, Progesterone Receptor (Homo sapiens, UniProt P06401); assay: Assay for Progesterone Receptor Activity: alkaline phosphatase upregulation in T47D cells; assay type: cell-based; conditions: 24 hours at 37° C.
T2 construct: The human breast cancer cell line T47D has been reported to upregulate an endogenous alkaline phosphatase in response to progestins; endogenous in cells; host or cells: T47D cells
T2 sequence (P06401 1-933): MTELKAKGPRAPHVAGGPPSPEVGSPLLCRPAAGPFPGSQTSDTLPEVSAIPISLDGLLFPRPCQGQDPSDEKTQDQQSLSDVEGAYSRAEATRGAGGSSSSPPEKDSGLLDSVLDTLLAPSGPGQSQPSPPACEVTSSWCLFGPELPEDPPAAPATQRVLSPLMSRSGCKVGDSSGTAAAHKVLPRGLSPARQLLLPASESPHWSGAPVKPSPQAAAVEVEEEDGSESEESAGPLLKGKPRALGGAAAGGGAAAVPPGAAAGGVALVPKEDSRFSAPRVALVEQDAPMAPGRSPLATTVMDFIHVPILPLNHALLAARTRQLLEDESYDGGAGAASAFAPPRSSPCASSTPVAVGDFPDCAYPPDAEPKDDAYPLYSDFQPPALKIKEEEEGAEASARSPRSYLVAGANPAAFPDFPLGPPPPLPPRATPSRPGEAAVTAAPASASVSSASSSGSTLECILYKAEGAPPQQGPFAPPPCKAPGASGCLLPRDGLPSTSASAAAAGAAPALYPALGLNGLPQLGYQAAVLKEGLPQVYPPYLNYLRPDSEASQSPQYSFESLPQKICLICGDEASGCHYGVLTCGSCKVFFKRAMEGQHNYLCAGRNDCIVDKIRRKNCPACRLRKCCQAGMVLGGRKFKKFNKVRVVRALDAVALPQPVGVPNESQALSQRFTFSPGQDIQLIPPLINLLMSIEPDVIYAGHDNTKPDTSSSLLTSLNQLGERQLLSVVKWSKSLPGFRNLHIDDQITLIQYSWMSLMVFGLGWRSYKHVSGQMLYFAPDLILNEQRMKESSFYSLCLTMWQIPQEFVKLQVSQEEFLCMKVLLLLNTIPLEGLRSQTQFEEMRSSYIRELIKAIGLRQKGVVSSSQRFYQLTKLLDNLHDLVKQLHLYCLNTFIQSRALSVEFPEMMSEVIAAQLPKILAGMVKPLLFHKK
Procedure: Assay for Progesterone Receptor Activity
The human breast cancer cell line T47D has been reported to upregulate an endogenous alkaline phosphatase in response to progestins (Di Lorenzo et al., Cancer Research (1991) 51, 4470-4475. T47D cells were seeded into 96 well plates at a density of 1×10^5 cells per well and grown overnight at 37° C. Steroids were dissolved in DMSO, added to the cells (final DMSO concentration 0.7%), and incubated for 24 hours at 37° C. The cells were then washed with PBS and lysed with RIPA buffer (1% IGEPAL, 0.5% Na deoxycholate, 0.1% SDS in phosphate buffered saline). Alkaline phosphatase activity was measured spectrophotometrically (405 nm) using p-nitrophenylphosphate (1.5 mg/ml) as a substrate dissolved in 1 M diethanolamine, 0.28M NaCl, 0.5 mM MgCl2. Dose response curves were constructed from which EC50 values were estimated.

Row | Structure (SMILES) | EC50 [nM]
17 | C[C@@H]1C[C@H]2[C@@H]3C[C@H](F)C4=CC(=O)C=C[C@]4(C)[C@@]3(F)[C@@H](O)C[C@]2(C)[C@@]1(OC(=O)C1CCCCC1)C(=O)OCC#N [Example 5, 17α-(Cyclohexylcarbonyl)oxy-6α,9α-difluoro-11β-hydroxy-16α-methyl-3-oxo-androsta-1,4-diene-17β-carboxylic Acid cyanomethyl Ester] | > 100
18 | CC(C)c1nc(C(=O)O[C@]2(C(=O)OCC#N)[C@H](C)C[C@H]3[C@@H]4C[C@H](F)C5=CC(=O)C=C[C@]5(C)[C@@]4(F)[C@@H](O)C[C@@]32C)cs1 [Example 11, 6α,9α-Difluoro-11β-hydroxy-17α-(2-isopropyl-1,3-thiazole-4-carbonyl)oxy-16α-methyl-3-oxo-androsta-1,4-diene-17β-carboxylic Acid Cyanomethyl Ester] | > 100
